According to patent US20130052214A1, “IDENTIFICATION OF A PEPTIDE(S) THAT INDUCES AUTOIMMUNE ANTERIOR UVEITIS” (BOARD OF TRUSTEES OF THE UNIVERSITY OF ARKANSAS, priority 2011, published 2013):

Tested on: Lewis rats
Assay: Induction of experimental autoimmune anterior uveitis (EAAU) by hind footpad immunization with MAA-derived peptides in CFA
Type: in vivo, rat
Details: for severity of EAAU, clinical and histopathologic examination: 250 μg peptide in CFA compared with 75 μg bovine MAA in CFA, histology at day 17 and day 20 post-immunization; for induction of EAAU: single-dose hind footpad immunization, emulsified 1:1 in CFA, 250 μg peptide or 75 μg bovine MAA, examined daily day 7 to 30 post-immunization
Description: Peptides having the sequence of SEQ ID NO. 1 and SEQ ID NO. 2 were solubilized in sterile phosphate buffered saline (PBS) before use. Lewis rats were immunized separately with 100 μl of stable emulsion containing 250 μg of peptide SEQ ID NO. 1 (n=9 rats) or peptide SEQ ID NO. 2 (n=9 rats) emulsified (1:1) in complete Freund's adjuvant (CFA) using a single-dose induction protocol in the hind footpad to induce EAAU. Control animals (n=9 rats) received 75 μg of bovine melanin associated antigen (MAA) emulsified (1:1) in CFA. Animals in each group were examined daily between day 7 and 30, post-immunization, to determine the time of onset and progression of clinical disease in EAAU. Two animals from each group were sacrificed at day 17 and day 20 post-immunization and eyes were harvested for histological analysis to determine the severity of disease and degree of inflammation. Lewis rats injected with MAA peptide SEQ ID NO. 1 or MAA peptide SEQ ID NO. […] 1 (FIGS. 1A and 1D) and peptide SEQ ID NO. […] As shown in all of the Figs., the iris (I) and the ciliary body (CB) were infiltrated with inflammatory cells.

Sequence	severity of EAAU, clinical and histopathologic examination	induction of EAAU
GEPGNIGFPGPKGPSGDPGKAGEKG (listed as Bos taurus) [SEQ ID NO. 1, truncated peptide derived from Melanin Associated Antigen (MAA)]	less severe than that induced by bovine MAA	developed EAAU
HAGLAGARGAPGPDGNNGAQGPPGL (listed as Bos taurus) [SEQ ID NO. 2, truncated peptide derived from Melanin Associated Antigen (MAA)]	less severe than that induced by bovine MAA	developed EAAU
